Experimental data taken from PMC12337661, “PIEZO1 mechanical insensitivity in generalized lymphatic dysplasia with the potential for pharmacological rescue” (iScience, 2025).

Target: T1, R2351Q mPIEZO1 (Mus musculus, UniProt E2JF22, R2351Q)
T1 construct: expressed in transfected cells
Test: Intracellular Ca2+ measurement (fura-2), T-REx-293 cells stably transfected
Format: cell-based
Details: for Mean (Ca2+ signal time course, Figure 4f) / Mean (concentration-response, Figure 4g): R2351Q
Method: T-REx-293 cell line was transfected with pcDNA4/TO-mPIEZO1 constructs using Lipofectamine 2000 (Invitrogen) as above and treated with 200 μg.mL^−1 zeocin (InvivoGen) to select for stably transfected cells. At least two strongly expressing clonal cell lines were established and tested for each variant. All cell lines were maintained in Dulbecco’s Modified Eagle’s medium (Invitrogen) supplemented with 10% heat-inactivated fetal calf serum (Sigma-Aldrich), penicillin (50 units.mL^−1) and streptomycin (0.5 mg.mL^−1) (Sigma-Aldrich) and grown at 37°C in a humidified 5% CO2 incubator.
For intracellular Ca^2+ assays, cells were plated at 80–90% confluence in 96-well plates 24 h prior to recordings (6–8 × 10^4 cells per well). […] Cells were washed with SBS and incubated at room temperature for 20 min prior to recordings. Equal volumes of 2x concentrated compounds were injected to test for acute channel activation. Pre-incubation with compounds occurred during the 20 min prior to recordings. To expose cell membranes to hypo-osmolality, an equal volume of hypotonic SBS (containing only 35 mM NaCl) was injected onto the cells. Measurements were made on a fluorescence plate reader (Flexstation III, Molecular Devices) at room temperature (21 ± 2°C). Fura-2 was excited at 340 nm and 380 nm and emitted light collected at 510 nm, with measurements shown as the change in fluorescence (F) ratio (ΔF340/380).
KC41 (Dooku1) was prepared as described.[28] All purchased chemicals and solvents were used without further purification unless otherwise stated. All compounds were at least 95% pure by 1H NMR. 1H Nuclear Magnetic Resonance spectra were recorded at 500 MHz using a Bruker DRX 500 instrument or at 400 MHz using a Bruker DPX 400. 1H spectra are referenced based on the residual proton in the solvent (e.g., the CHCl3, 0.01% in 99.99% CDCl3). Coupling constants (J) are reported to the nearest 0.1 Hz. 13C NMR spectra were recorded at 125 MHz on 500 MHz spectrometers or at 100 MHz on 400 MHz spectrometers. LC-MS was performed on a Bruker Daltronics running a gradient of increasing acetonitrile (5–95%) in H2O both containing 0.1% formic acid at 1 mL.min^−1, on a short path C18 reverse phase column, detecting compounds with both a diode array detector and a Bruker mass spectrum analyser. HRMS was performed on a Bruker Daltonics micrOTOF using positive electrospray ionisation (ES+). Automated column chromatograph was carried out using a Biotage Isolera Four, using either Sfär Silica D or KP-Silica cartridges. HPLC was performed on an Agilent 1290 Infinity Series equipped with a UV detector and Hyperprep C18 reverse phase column. Key to NMR abbreviations: s (singlet), br s (broad singlet) d (doublet), dd (doublet of doublets), ddd (doublet of doublets of doublets), t (triplet), dt (doublet of triples), q (quartet), m (multiplet), ap. t (apparent triplet). For experiments, Yoda1 and its analogues were prepared as 10 mM stock solutions in 100% dimethyl sulfoxide (DMSO) before serial dilution in DMSO and final dilution in aqueous solution. Cells were exposed to 0.1% DMSO for all concentrations of the compounds from 0 to 10 μM.

T1 sequence (E2JF22 whole entry R2351Q): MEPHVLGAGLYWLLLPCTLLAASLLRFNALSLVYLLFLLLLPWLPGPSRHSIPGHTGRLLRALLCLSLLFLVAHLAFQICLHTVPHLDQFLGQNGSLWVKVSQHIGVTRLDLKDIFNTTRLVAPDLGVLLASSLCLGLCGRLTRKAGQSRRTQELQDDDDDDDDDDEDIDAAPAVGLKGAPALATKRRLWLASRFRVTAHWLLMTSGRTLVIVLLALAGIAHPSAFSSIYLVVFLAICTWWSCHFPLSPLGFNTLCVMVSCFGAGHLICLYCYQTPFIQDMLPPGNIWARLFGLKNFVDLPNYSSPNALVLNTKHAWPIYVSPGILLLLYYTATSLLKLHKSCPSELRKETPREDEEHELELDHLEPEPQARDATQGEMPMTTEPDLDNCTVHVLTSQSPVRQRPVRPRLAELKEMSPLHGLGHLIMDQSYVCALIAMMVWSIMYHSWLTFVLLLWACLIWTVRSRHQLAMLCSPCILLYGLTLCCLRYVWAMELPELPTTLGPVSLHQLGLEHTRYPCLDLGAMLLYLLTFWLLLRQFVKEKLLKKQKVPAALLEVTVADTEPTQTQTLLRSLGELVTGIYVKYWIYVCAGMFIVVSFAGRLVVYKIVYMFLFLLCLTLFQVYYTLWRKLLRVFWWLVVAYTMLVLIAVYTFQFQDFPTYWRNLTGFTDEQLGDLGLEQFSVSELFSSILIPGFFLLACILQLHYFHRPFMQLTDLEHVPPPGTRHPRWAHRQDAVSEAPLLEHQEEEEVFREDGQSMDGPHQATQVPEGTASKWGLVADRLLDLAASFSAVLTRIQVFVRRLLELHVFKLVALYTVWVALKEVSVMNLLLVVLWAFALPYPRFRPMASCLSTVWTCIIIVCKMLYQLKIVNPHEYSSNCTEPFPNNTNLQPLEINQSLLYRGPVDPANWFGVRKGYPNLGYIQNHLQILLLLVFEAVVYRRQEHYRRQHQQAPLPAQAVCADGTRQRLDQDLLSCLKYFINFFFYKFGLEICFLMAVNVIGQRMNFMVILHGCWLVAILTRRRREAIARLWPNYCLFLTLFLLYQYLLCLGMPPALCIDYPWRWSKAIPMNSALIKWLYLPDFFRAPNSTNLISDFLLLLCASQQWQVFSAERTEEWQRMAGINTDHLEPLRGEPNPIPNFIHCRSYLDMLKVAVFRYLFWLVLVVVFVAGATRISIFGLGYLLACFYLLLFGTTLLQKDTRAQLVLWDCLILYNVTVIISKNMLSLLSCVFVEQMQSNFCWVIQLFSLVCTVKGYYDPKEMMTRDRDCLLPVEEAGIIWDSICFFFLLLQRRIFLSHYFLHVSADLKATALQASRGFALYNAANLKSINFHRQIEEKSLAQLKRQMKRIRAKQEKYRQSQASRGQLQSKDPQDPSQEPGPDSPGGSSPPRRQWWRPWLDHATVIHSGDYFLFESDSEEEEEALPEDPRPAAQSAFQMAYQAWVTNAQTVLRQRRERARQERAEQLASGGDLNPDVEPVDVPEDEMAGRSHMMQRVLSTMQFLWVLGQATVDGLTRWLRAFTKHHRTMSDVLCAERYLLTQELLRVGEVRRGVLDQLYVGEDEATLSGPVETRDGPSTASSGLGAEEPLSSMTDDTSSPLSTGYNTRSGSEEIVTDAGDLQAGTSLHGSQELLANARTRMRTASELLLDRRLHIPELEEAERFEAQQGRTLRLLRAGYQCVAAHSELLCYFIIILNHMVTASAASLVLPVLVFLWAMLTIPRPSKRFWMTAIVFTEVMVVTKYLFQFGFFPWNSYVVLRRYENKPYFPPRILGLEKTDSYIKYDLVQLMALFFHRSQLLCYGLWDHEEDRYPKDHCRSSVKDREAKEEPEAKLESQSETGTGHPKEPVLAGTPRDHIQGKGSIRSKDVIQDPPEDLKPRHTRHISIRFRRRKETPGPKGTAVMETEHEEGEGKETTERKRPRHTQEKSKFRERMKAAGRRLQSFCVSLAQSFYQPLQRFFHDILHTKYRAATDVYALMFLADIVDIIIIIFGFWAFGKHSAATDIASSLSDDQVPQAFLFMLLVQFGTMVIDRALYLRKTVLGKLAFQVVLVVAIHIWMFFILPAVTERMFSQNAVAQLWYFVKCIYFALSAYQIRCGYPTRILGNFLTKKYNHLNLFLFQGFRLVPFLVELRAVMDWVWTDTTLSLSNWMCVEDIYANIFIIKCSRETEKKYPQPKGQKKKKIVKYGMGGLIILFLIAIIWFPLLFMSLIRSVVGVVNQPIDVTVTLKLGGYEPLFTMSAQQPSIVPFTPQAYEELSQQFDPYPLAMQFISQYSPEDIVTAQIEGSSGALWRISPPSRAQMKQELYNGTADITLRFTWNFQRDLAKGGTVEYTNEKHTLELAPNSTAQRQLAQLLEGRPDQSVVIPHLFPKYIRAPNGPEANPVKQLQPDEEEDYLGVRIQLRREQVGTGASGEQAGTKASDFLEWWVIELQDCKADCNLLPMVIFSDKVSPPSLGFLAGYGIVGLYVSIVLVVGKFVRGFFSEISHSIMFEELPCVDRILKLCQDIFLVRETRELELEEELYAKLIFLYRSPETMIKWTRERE

O=C(O)c1ccc(-c2cnc(SCc3c(Cl)cccc3Cl)s2)cc1 [Yoda2b, 4-(2-([(2,6-Dichlorophenyl)methyl]sulfanyl)-1,3-thiazol-5-yl)benzoic acid]
Mean (Ca2+ signal time course, Figure 4f) (0.3 µM, time 0 s): -0.00345
Mean (Ca2+ signal time course, Figure 4f) (0.3 µM, time 5 s): -0.00122
Mean (Ca2+ signal time course, Figure 4f) (0.3 µM, time 10 s): 0.01286
Mean (Ca2+ signal time course, Figure 4f) (0.3 µM, time 15 s): 0.00659
Mean (Ca2+ signal time course, Figure 4f) (0.3 µM, time 20 s): -0.0106
Mean (Ca2+ signal time course, Figure 4f) (0.3 µM, time 25 s): -0.00417
Mean (Ca2+ signal time course, Figure 4f) (0.3 µM, time 30 s): -0.1638
Mean (Ca2+ signal time course, Figure 4f) (0.3 µM, time 35 s): -0.1525
Mean (Ca2+ signal time course, Figure 4f) (0.3 µM, time 40 s): 0.1031
Mean (Ca2+ signal time course, Figure 4f) (0.3 µM, time 45 s): 0.1823
Mean (Ca2+ signal time course, Figure 4f) (0.3 µM, time 50 s): 0.2367
Mean (Ca2+ signal time course, Figure 4f) (0.3 µM, time 55 s): 0.2605
Mean (Ca2+ signal time course, Figure 4f) (0.3 µM, time 60 s): 0.2818
Mean (Ca2+ signal time course, Figure 4f) (0.3 µM, time 65 s): 0.2859
Mean (Ca2+ signal time course, Figure 4f) (0.3 µM, time 70 s): 0.3055
Mean (Ca2+ signal time course, Figure 4f) (0.3 µM, time 75 s): 0.2731
Mean (Ca2+ signal time course, Figure 4f) (0.3 µM, time 80 s): 0.2811
Mean (Ca2+ signal time course, Figure 4f) (0.3 µM, time 85 s): 0.2788
Mean (Ca2+ signal time course, Figure 4f) (0.3 µM, time 90 s): 0.2616
Mean (Ca2+ signal time course, Figure 4f) (0.3 µM, time 95 s): 0.2726
Mean (Ca2+ signal time course, Figure 4f) (0.3 µM, time 100 s): 0.2623
Mean (Ca2+ signal time course, Figure 4f) (0.3 µM, time 105 s): 0.2451
Mean (Ca2+ signal time course, Figure 4f) (0.3 µM, time 110 s): 0.2677
Mean (Ca2+ signal time course, Figure 4f) (0.3 µM, time 115 s): 0.2432
Mean (Ca2+ signal time course, Figure 4f) (0.3 µM, time 120 s): 0.2668
Mean (Ca2+ signal time course, Figure 4f) (0.3 µM, time 125 s): 0.2392
Mean (Ca2+ signal time course, Figure 4f) (0.3 µM, time 130 s): 0.2157
Mean (Ca2+ signal time course, Figure 4f) (3 µM, time 0 s): -0.0127
Mean (Ca2+ signal time course, Figure 4f) (3 µM, time 5 s): -0.01559
Mean (Ca2+ signal time course, Figure 4f) (3 µM, time 10 s): 0.01198
Mean (Ca2+ signal time course, Figure 4f) (3 µM, time 15 s): 0.01352
Mean (Ca2+ signal time course, Figure 4f) (3 µM, time 20 s): 7.66E-04
Mean (Ca2+ signal time course, Figure 4f) (3 µM, time 25 s): 0.00202
Mean (Ca2+ signal time course, Figure 4f) (3 µM, time 30 s): -0.4931
Mean (Ca2+ signal time course, Figure 4f) (3 µM, time 35 s): -0.08324
Mean (Ca2+ signal time course, Figure 4f) (3 µM, time 40 s): 0.5902
Mean (Ca2+ signal time course, Figure 4f) (3 µM, time 45 s): 0.919
Mean (Ca2+ signal time course, Figure 4f) (3 µM, time 50 s): 1.153
Mean (Ca2+ signal time course, Figure 4f) (3 µM, time 55 s): 1.288
Mean (Ca2+ signal time course, Figure 4f) (3 µM, time 60 s): 1.4
Mean (Ca2+ signal time course, Figure 4f) (3 µM, time 65 s): 1.461
Mean (Ca2+ signal time course, Figure 4f) (3 µM, time 70 s): 1.455
Mean (Ca2+ signal time course, Figure 4f) (3 µM, time 75 s): 1.399
Mean (Ca2+ signal time course, Figure 4f) (3 µM, time 80 s): 1.41
Mean (Ca2+ signal time course, Figure 4f) (3 µM, time 85 s): 1.397
Mean (Ca2+ signal time course, Figure 4f) (3 µM, time 90 s): 1.327
Mean (Ca2+ signal time course, Figure 4f) (3 µM, time 95 s): 1.295
Mean (Ca2+ signal time course, Figure 4f) (3 µM, time 100 s): 1.247
Mean (Ca2+ signal time course, Figure 4f) (3 µM, time 105 s): 1.236
Mean (Ca2+ signal time course, Figure 4f) (3 µM, time 110 s): 1.129
Mean (Ca2+ signal time course, Figure 4f) (3 µM, time 115 s): 1.087
Mean (Ca2+ signal time course, Figure 4f) (3 µM, time 120 s): 1.099
Mean (Ca2+ signal time course, Figure 4f) (3 µM, time 125 s): 1.0906
Mean (Ca2+ signal time course, Figure 4f) (3 µM, time 130 s): 0.9817
Mean (concentration-response, Figure 4g) (Yoda2b concentration 0.01 µM): 6.31E-04
Mean (concentration-response, Figure 4g) (Yoda2b concentration 0.03 µM): 0.01052
Mean (concentration-response, Figure 4g) (Yoda2b concentration 0.1 µM): 0.03752
Mean (concentration-response, Figure 4g) (Yoda2b concentration 0.3 µM): 0.1939
Mean (concentration-response, Figure 4g) (Yoda2b concentration 1 µM): 0.4898
Mean (concentration-response, Figure 4g) (Yoda2b concentration 3 µM): 0.7217
Mean (concentration-response, Figure 4g) (Yoda2b concentration 10 µM): 0.9598
channel activation compared with Yoda1 (side-by-side, same 96-well plate): more potently activated by Yoda2b
